{"source": "patent US6133294A", "about": "(priority 1999, dated 2000)", "format_in_all_cases": "in vivo", "key": {"Erysiphe graminis": {"tested_on": "Erysiphe graminis", "assay": "Powdery Mildew of Wheat (Erysiphe graminis--ERYSGT)", "conditions": "wheat (cultivar Monon), 100 ppm spray to run off, inoculated after 24 hours; for pest or weed control at 100 ppm: Blumeria graminis, 1DP, read-out: control of plant disease, ERYSGT 1DP", "method": "(§1) Compound Formulation: Compound formulation was accomplished by dissolving technical materials in acetone, with serial dilutions then made in acetone to obtain desired rates. Final treatment volumes were obtained by adding nine volumes 0.05% aqueous Tween-20 or Triton X-100, depending upon the pathogen.\nPowdery Mildew of Wheat (Erysiphe graminis--ERYSGT): Wheat (cultivar Monon) was grown in a soilless peat-based potting mixture (Metromix) until the seedlings were 1-2 leaf (BBCH 12). These plants were then sprayed to run off with the test compound at a rate of 100 ppm. After 24 hours the test plants were inoculated with Erysiphe graminis by dusting spores from stock plants onto the test plants. The plants were then transferred to the greenhouse until disease developed on the untreated control plants.\n(§2) the following table presents the activity of typical compounds of the present invention when evaluated in these experiments. The effectiveness of the test compounds in controlling disease was rated using the following scale: […]"}, "Leptosphaeria nodorum": {"tested_on": "Leptosphaeria nodorum", "assay": "Glume blotch of wheat (Leptosphaeria nodorum--LEPTNO)", "conditions": "wheat (cultivar Monon), 100 ppm spray to run off, inoculated after 24 hours; for pest or weed control at 100 ppm: Parastagonospora nodorum, 1DP, read-out: control of plant disease, LEPTNO 1DP", "method": "as §1\n(§3) Glume blotch of wheat (Leptosphaeria nodorum--LEPTNO): Wheat (cultivar Monon) was grown from seed in a soilless peat-based potting mixture (Metromix) until the seedlings were 1-2 leaf (BBCH 12). These plants were then sprayed to run off with the test compound at a rate of 100 ppm. After 24 hours the test plants were inoculated with an aqueous spore suspension of Leptosphaeria nodorum. The plants were then transferred to the greenhouse until disease developed on the untreated control plants.\nas §2"}, "Phytophthora infestans": {"tested_on": "Phytophthora infestans", "assay": "whole plant or invertebrate", "conditions": "for pest or weed control at 100 ppm: Phytophthora infestans, 24 h, read-out: control of plant disease, PHYTIN 1DP"}, "Puccinia recondita": {"tested_on": "Puccinia recondita", "assay": "Brown rust (Puccinia recondita--PUCCRT)", "conditions": "wheat (cultivar Monon), 100 ppm spray to run off, inoculated after 24 hours; for pest or weed control at 100 ppm: Puccinia recondita, 1DP, read-out: control of plant disease, PUCCRT 1DP", "method": "as §1\nas §3, with “Brown rust (Puccinia recondita--PUCCRT):” for “Glume blotch of wheat (Leptosphaeria nodorum--LEPTNO):”, “[…]).” for “1-2 leaf (BBCH 12).”, “Puccinia recondita.” for “Leptosphaeria nodorum.”\nas §2"}}, "data": [{"smiles": "CCc1nnc(-c2cnc(OCc3ccccc3C(=NOC)C(=O)NC)c(Cl)c2)o1", "note": "[Example 5]", "values": [{"measurement": "pest or weed control at 100 ppm", "setting": "Erysiphe graminis", "result": "75 to 100", "unit": "%"}, {"measurement": "pest or weed control at 100 ppm", "setting": "Leptosphaeria nodorum", "result": "75 to 100", "unit": "%"}, {"measurement": "pest or weed control at 100 ppm", "setting": "Phytophthora infestans", "result": "75 to 100", "unit": "%"}, {"measurement": "pest or weed control at 100 ppm", "setting": "Puccinia recondita", "result": "75 to 100", "unit": "%"}]}, {"smiles": "CNC(=O)C(=NOC)c1ccccc1COc1ccc(-c2noc(C(F)(F)F)n2)cn1", "note": "[Example 16]", "values": [{"measurement": "pest or weed control at 100 ppm", "setting": "Erysiphe graminis", "result": "75 to 100", "unit": "%"}, {"measurement": "pest or weed control at 100 ppm", "setting": "Leptosphaeria nodorum", "result": "0 to 24", "unit": "%"}, {"measurement": "pest or weed control at 100 ppm", "setting": "Phytophthora infestans", "result": "0 to 24", "unit": "%"}, {"measurement": "pest or weed control at 100 ppm", "setting": "Puccinia recondita", "result": "75 to 100", "unit": "%"}]}, {"smiles": "CNC(=O)C(=NOC)c1ccccc1COc1ncc(-c2nc(CC(C)C)no2)cc1Cl", "note": "[Example 77]", "values": [{"measurement": "pest or weed control at 100 ppm", "setting": "Erysiphe graminis", "result": "75 to 100", "unit": "%"}, {"measurement": "pest or weed control at 100 ppm", "setting": "Leptosphaeria nodorum", "result": "75 to 100", "unit": "%"}, {"measurement": "pest or weed control at 100 ppm", "setting": "Phytophthora infestans", "result": "0 to 24", "unit": "%"}, {"measurement": "pest or weed control at 100 ppm", "setting": "Puccinia recondita", "result": "75 to 100", "unit": "%"}]}, {"smiles": "CNC(=O)C(=NOC)c1ccccc1COc1ccc(-c2noc(C(C)(C)C)n2)cn1", "note": "[Example 9]", "values": [{"measurement": "pest or weed control at 100 ppm", "setting": "Erysiphe graminis", "result": "75 to 100", "unit": "%"}, {"measurement": "pest or weed control at 100 ppm", "setting": "Leptosphaeria nodorum", "result": "75 to 100", "unit": "%"}, {"measurement": "pest or weed control at 100 ppm", "setting": "Phytophthora infestans", "result": "0 to 24", "unit": "%"}, {"measurement": "pest or weed control at 100 ppm", "setting": "Puccinia recondita", "result": "75 to 100", "unit": "%"}]}, {"smiles": "CNC(=O)C(=NOC)c1ccccc1COc1ncc(-c2nnc(-c3ccccc3)o2)cc1Cl", "note": "[Example 2]", "values": [{"measurement": "pest or weed control at 100 ppm", "setting": "Erysiphe graminis", "result": "25 to 74", "unit": "%"}, {"measurement": "pest or weed control at 100 ppm", "setting": "Leptosphaeria nodorum", "result": "75 to 100", "unit": "%"}, {"measurement": "pest or weed control at 100 ppm", "setting": "Phytophthora infestans", "result": "75 to 100", "unit": "%"}, {"measurement": "pest or weed control at 100 ppm", "setting": "Puccinia recondita", "result": "75 to 100", "unit": "%"}]}, {"smiles": "CNC(=O)C(=NOC)c1ccccc1COc1ccc(-c2nc(CC(C)C)no2)cn1", "note": "[Example 75]", "values": [{"measurement": "pest or weed control at 100 ppm", "setting": "Erysiphe graminis", "result": "75 to 100", "unit": "%"}, {"measurement": "pest or weed control at 100 ppm", "setting": "Leptosphaeria nodorum", "result": "25 to 74", "unit": "%"}, {"measurement": "pest or weed control at 100 ppm", "setting": "Phytophthora infestans", "result": "0 to 24", "unit": "%"}, {"measurement": "pest or weed control at 100 ppm", "setting": "Puccinia recondita", "result": "75 to 100", "unit": "%"}]}, {"smiles": "CNC(=O)C(=NOC)c1ccccc1COc1ncc(-c2nnc(C(C)(C)C)o2)cc1Cl", "note": "[Example 4]", "values": [{"measurement": "pest or weed control at 100 ppm", "setting": "Erysiphe graminis", "result": "75 to 100", "unit": "%"}, {"measurement": "pest or weed control at 100 ppm", "setting": "Leptosphaeria nodorum", "result": "75 to 100", "unit": "%"}, {"measurement": "pest or weed control at 100 ppm", "setting": "Phytophthora infestans", "result": "0 to 24", "unit": "%"}, {"measurement": "pest or weed control at 100 ppm", "setting": "Puccinia recondita", "result": "75 to 100", "unit": "%"}]}, {"smiles": "CNC(=O)C(=NOC)c1cccc(Cl)c1COc1cccc(-c2nc(C(C)(C)C)no2)n1", "note": "[Example 86]", "values": [{"measurement": "control of plant disease, ERYSGT 1DP", "setting": "Erysiphe graminis", "result": "++ (75-100% control of plant disease)"}, {"measurement": "control of plant disease, LEPTNO 1DP", "setting": "Leptosphaeria nodorum", "result": "- (0-24% control of plant disease)"}, {"measurement": "control of plant disease, PHYTIN 1DP", "setting": "Phytophthora infestans; tomatoes (cultivar Rutgers), 100 ppm spray to run off, inoculated after 24 hours, 1DP", "result": "+ (25-74% control of plant disease)"}, {"measurement": "control of plant disease, PUCCRT 1DP", "setting": "Puccinia recondita", "result": "++ (75-100% control of plant disease)"}]}, {"smiles": "CNC(=O)C(=NOC)c1ccccc1COc1ncc(-c2nc(C)no2)cc1Cl", "note": "[Example 49, Benzeneacetamide, 2-[[[3-chloro-5-(3-methyl-1,2,4-oxadiazol-5-yl)-2-pyridinyl]oxy]methyl]-α-(methoxyimino)-N-methyl-]", "values": [{"measurement": "pest or weed control at 100 ppm", "setting": "Erysiphe graminis", "result": "75 to 100", "unit": "%"}, {"measurement": "pest or weed control at 100 ppm", "setting": "Leptosphaeria nodorum", "result": "75 to 100", "unit": "%"}, {"measurement": "pest or weed control at 100 ppm", "setting": "Phytophthora infestans", "result": "0 to 24", "unit": "%"}, {"measurement": "pest or weed control at 100 ppm", "setting": "Puccinia recondita", "result": "75 to 100", "unit": "%"}]}, {"smiles": "CNC(=O)C(=NOC)c1ccccc1COc1ncc(-c2cc(C)no2)cc1Cl", "note": "[Example 79]", "values": [{"measurement": "pest or weed control at 100 ppm", "setting": "Phytophthora infestans", "result": "0 to 24", "unit": "%"}]}, {"smiles": "CNC(=O)C(=NOC)c1ccccc1COc1ncc(-c2nc(C(C)(C)C)no2)cc1C", "note": "[Example 60]", "values": [{"measurement": "pest or weed control at 100 ppm", "setting": "Erysiphe graminis", "result": "75 to 100", "unit": "%"}, {"measurement": "pest or weed control at 100 ppm", "setting": "Leptosphaeria nodorum", "result": "75 to 100", "unit": "%"}, {"measurement": "pest or weed control at 100 ppm", "setting": "Puccinia recondita", "result": "75 to 100", "unit": "%"}]}, {"smiles": "CNC(=O)C(=NOC)c1ccccc1COc1ccc(-c2cc(-c3ccccc3)on2)cn1", "note": "[Example 44]", "values": [{"measurement": "pest or weed control at 100 ppm", "setting": "Phytophthora infestans", "result": "0 to 24", "unit": "%"}]}, {"smiles": "CCc1noc(-c2ccc(OCc3ccccc3C(=NOC)C(=O)NC)nc2)n1", "note": "[Example 63]", "values": [{"measurement": "pest or weed control at 100 ppm", "setting": "Erysiphe graminis", "result": "75 to 100", "unit": "%"}, {"measurement": "pest or weed control at 100 ppm", "setting": "Leptosphaeria nodorum", "result": "25 to 74", "unit": "%"}, {"measurement": "pest or weed control at 100 ppm", "setting": "Puccinia recondita", "result": "75 to 100", "unit": "%"}]}, {"smiles": "CNC(=O)C(=NOC)c1ccccc1COc1ncc(-c2nc(CSC)no2)cc1Cl", "note": "[Example 62]", "values": [{"measurement": "pest or weed control at 100 ppm", "setting": "Erysiphe graminis", "result": "75 to 100", "unit": "%"}, {"measurement": "pest or weed control at 100 ppm", "setting": "Leptosphaeria nodorum", "result": "75 to 100", "unit": "%"}, {"measurement": "pest or weed control at 100 ppm", "setting": "Puccinia recondita", "result": "75 to 100", "unit": "%"}]}, {"smiles": "CNC(=O)C(=NOC)c1ccccc1COc1ncc(-c2nc(COC)no2)cc1Cl", "note": "[Example 61]", "values": [{"measurement": "pest or weed control at 100 ppm", "setting": "Erysiphe graminis", "result": "75 to 100", "unit": "%"}, {"measurement": "pest or weed control at 100 ppm", "setting": "Leptosphaeria nodorum", "result": "0 to 24", "unit": "%"}, {"measurement": "pest or weed control at 100 ppm", "setting": "Puccinia recondita", "result": "75 to 100", "unit": "%"}]}, {"smiles": "CNC(=O)C(=NOC)c1ccccc1COc1ccc(-c2cc(C)on2)cn1", "note": "[Example 45]", "values": [{"measurement": "pest or weed control at 100 ppm", "setting": "Phytophthora infestans", "result": "25 to 74", "unit": "%"}]}, {"smiles": "CNC(=O)C(=NOC)c1ccccc1COc1ncc(-c2nc(C(C)C)no2)cc1Cl", "note": "[Example 59]", "values": [{"measurement": "pest or weed control at 100 ppm", "setting": "Erysiphe graminis", "result": "75 to 100", "unit": "%"}, {"measurement": "pest or weed control at 100 ppm", "setting": "Leptosphaeria nodorum", "result": "75 to 100", "unit": "%"}, {"measurement": "pest or weed control at 100 ppm", "setting": "Puccinia recondita", "result": "75 to 100", "unit": "%"}]}, {"smiles": "CCc1cc(-c2ccc(OCc3ccccc3C(=NOC)C(=O)NC)nc2)on1", "note": "[Example 80]", "values": [{"measurement": "pest or weed control at 100 ppm", "setting": "Phytophthora infestans", "result": "0 to 24", "unit": "%"}]}]}
